This is an account of results in PMC7470127, “Design, synthesis, and evaluation of 1, 4-benzodioxan-substituted chalcones as selective and reversible inhibitors of human monoamine oxidase B” (Journal of Enzyme Inhibition and Medicinal Chemistry, 2020).

Data set [1] deals with T1, hMAO-B (Homo sapiens, UniProt P27338).
T1 sequence (P27338 1-520): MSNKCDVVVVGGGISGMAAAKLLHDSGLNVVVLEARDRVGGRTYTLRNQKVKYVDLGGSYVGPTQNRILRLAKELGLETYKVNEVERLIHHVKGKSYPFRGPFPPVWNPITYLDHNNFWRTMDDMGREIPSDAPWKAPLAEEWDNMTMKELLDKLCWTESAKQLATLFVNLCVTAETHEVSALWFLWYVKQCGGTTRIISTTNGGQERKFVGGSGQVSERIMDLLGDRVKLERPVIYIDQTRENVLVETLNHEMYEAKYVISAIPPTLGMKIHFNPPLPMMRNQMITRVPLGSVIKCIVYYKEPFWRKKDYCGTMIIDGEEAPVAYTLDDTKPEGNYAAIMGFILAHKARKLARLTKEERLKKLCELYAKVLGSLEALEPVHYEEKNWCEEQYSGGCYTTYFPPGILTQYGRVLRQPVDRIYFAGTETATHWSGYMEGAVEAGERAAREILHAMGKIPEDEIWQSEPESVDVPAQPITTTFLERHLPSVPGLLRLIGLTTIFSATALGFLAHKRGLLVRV
Particulars: cited from earlier work.

Data set [2] addresses T1, hMAO-B. Kind of data set: hMAO inhibition assay (Amplex Red fluorescence), hMAO-B, benzylamine substrate. Particulars: for Selectivity Index (SI): SI = IC50 (hMAO-A)/IC50 (hMAO-B); for fold higher inhibitory potency than 4: from IC50, versus compound 4; for inhibition at 1 µM: tested concentration 1 µM. The format is biochemical. As to the method:
The hMAO inhibition assay was performed as previously described. […] The test compounds were dissolved in DMSO as stock solutions (10 mM) and diluted with sodium phosphate buffer (50 mM, pH 7.4) to the corresponding concentrations. […] The specific fluorescence emission was calculated after subtraction of the background activity. The background activity was determined from wells containing all components except the hMAO isoforms, which were replaced by a sodium phosphate buffer solution. The percentage inhibition was calculated by the following expression: (1 – IFi/IFc) × 100, in which IFi and IFc are the fluorescence intensities obtained for hMAO in the presence and absence of inhibitors after subtracting the respective background.

The next data set concerns the target T2, hMAO-A (Homo sapiens, UniProt P21397).
T2 sequence (P21397 1-527): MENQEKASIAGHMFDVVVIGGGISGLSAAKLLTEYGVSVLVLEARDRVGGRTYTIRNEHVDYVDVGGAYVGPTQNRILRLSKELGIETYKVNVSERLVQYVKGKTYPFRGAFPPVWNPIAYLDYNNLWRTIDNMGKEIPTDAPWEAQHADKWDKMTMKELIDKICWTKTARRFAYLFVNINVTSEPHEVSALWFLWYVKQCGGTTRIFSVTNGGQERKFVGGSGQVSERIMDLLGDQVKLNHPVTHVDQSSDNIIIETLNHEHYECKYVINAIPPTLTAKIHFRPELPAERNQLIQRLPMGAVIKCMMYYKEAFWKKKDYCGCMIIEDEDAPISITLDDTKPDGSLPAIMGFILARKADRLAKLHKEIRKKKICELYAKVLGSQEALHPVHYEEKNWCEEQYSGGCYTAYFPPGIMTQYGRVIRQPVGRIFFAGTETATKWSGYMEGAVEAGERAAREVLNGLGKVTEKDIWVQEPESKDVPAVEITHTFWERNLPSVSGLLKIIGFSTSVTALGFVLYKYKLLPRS
Description: hMAO inhibition assay (Amplex Red fluorescence), hMAO-A, p-tyramine substrate. It counts as biochemical. The settings on record: recombinant hMAO-A. On the procedure: The hMAO inhibition assay was performed as previously described. Adequate amounts of recombinant hMAO-A/B were acquired and adjusted to 12.5 µg/mL or 75 µg/mL for hMAO-A or hMAO-B, respectively, with sodium phosphate buffer (50 mM, pH 7.4). The test compounds were dissolved in DMSO as stock solutions (10 mM) and diluted with sodium phosphate buffer (50 mM, pH 7.4) to the corresponding concentrations. Then the test compounds (20 µL) and hMAO (80 µL) were incubated for 15 min at 37 °C in a flat, black-bottomed 96-well microtest plate in the dark. The reaction was initiated by adding Amplex Red reagent (200 µM, final concentration), horseradish peroxidase (2 U/mL, final concentration), and 2 mM p-tyramine for hMAO-A or 2 mM benzylamine (final concetration) for hMAO-B and incubated at 37 °C for 20 min. Activity was quantified in a multi detection microplate fluorescence reader (SpectraMax M5, Molecular Devices, USA) based on the fluorescence generated (excitation, 545 nm; emission, 590 nm). The specific fluorescence emission was calculated after subtraction of the background activity. The background activity was determined from wells containing all components except the hMAO isoforms, which were replaced by a sodium phosphate buffer solution. The percentage inhibition was calculated by the following expression: (1 – IFi/IFc) × 100, in which IFi and IFc are the fluorescence intensities obtained for hMAO in the presence and absence of inhibitors after subtracting the respective background. […]

The test system of a further data set is BV2 microglia cells. Kind of data set: MTT assay, cytotoxicity. Particulars: 5 and 25 µM for 24 h. It counts as cell-based. On the procedure: The 3–(4, 5-dimethylthiazol-2-yl)-2,5-diphenyltetrazolium (MTT) assay was performed as previously described. BV2 Cells were plated at 5000 cells per well and allowed to grow at 37 °C overnight. Then the cells were treated with various concentrations of the tested compounds for 24 h at 37 °C in a humidified atmosphere with 5% CO2, 0.5% DMSO acted as the vehicle control. The cell culture medium was then removed, followed by the addition of fresh cell culture medium containing 5.0 g/L MTT (20 µL/per well) and incubation at 37 °C in a humidified, 5% CO2 atmosphere for 4 h. After this incubation period, the cell culture medium was removed and the formed formazan crystals dissolved in 100% DMSO. The absorbance was measured at 570 nm in a multi-well plate reader. The results are expressed as % relative cell viability compared to DMSO vehicle control.
(Tetrazolium assays rely on reduction of a dye to a coloured formazan, in cell work by metabolically active cells.)

The target of data set [3] is T1, hMAO-B. Description: Reversibility study: time-dependent inhibition of hMAO-B. The settings on record: for IC80: compounds used at the concentration of their IC80; for time after which the residual activity of hMAO-B began to increase: inhibitor at IC80; for reversibility of hMAO-B inhibition: inhibitor at IC80, activity followed for 120 min. It counts as biochemical. As to the method: Control experiments without inhibitors were run simultaneously. The enzymatic activity was determined as described above. The percentage of enzyme activity was plotted against the incubation time to determine time-dependent enzyme inhibition.

Data set [4] deals with T1, hMAO-B. Description: Enzyme kinetic study (Lineweaver–Burk plots). Particulars: benzylamine 1, 2, 4 and 8 mM. The format is biochemical. As to the method: To evaluate the mode of MAO-B inhibition, the representative compound was evaluated in substrate-dependent kinetic experiments performed as previously described. Sets of Lineweaver–Burk plots were generated. The reciprocal MAO-B activity was plotted against the reciprocal substrate concentration. […] The enzymatic reactions and measurements were performed using human MAO-B assay conditions as described above for the determination of IC50 values.

Setting [5] is: recombinant hMAO-B, read-out: hMAO-B IC50.

Like-named read-outs stand apart in the source and are kept apart here.

As to `Cc1ccc(C(=O)/C=C/c2ccc(F)c(Br)c2)s1` [Compound 4h], at hMAO-B [1] (ref [13]), the “inhibition mode of hMAO-B” value is given as “reversible inhibition”.
For the compound `COc1ccc(C(=O)/C=C/c2ccc(Cl)cc2)c(O)c1` [Compound 5i], at hMAO-B [1] (ref [12]), the “inhibition mode of hMAO-B” value is “irreversible inhibition”.
For the compound `Brc1cccc(COc2ccc3c(c2)OCCO3)c1` [Compound 7c], the “inhibition mode of hMAO-B” value on hMAO-B [1] (ref [17]) is “reversible inhibition”.
For the compound `O=C(/C=C/c1ccc2c(c1)OCCO2)c1cccc(Br)c1` [Compound 16, (E)-1-(3-bromophenyl)-3-(2,3-dihydrobenzo[b][1,4]dioxin-6-yl)prop-2-en-1-one], the melting point (commonly the temperature, or range, at which the solid turns liquid) lay in the range of 119.3 to 120.4 °C. In addition, on hMAO-B [2], the “Selectivity Index (SI)” value is given as greater than 727, the “fold higher inhibitory potency than 4” value is listed as 1.7–4 fold and the inhibition (commonly the percentage by which the read-out fell short of the control) at 1 µM was 93.3%. Moreover, at hMAO-B [2] (setting [5]), the IC50 (usually the midpoint of a concentration-inhibition curve) was found to be 55 ± 2 nM. Also, the IC50 on hMAO-A was greater than 40000 nM. Also, the “Cell viability of BV2 cells” value in the data set with BV2 microglia cells is recorded as “no considerable decrease in cellular viability”. On hMAO-B [3], it took 280 nM to reach the 80% level (IC80), the “time after which the residual activity of hMAO-B began to increase” value was 20 min and the “reversibility of hMAO-B inhibition” value is on record as “reversible”. On hMAO-B [4], the “mode of hMAO-B inhibition” value is on record as “competitive”.
On to `O=C(/C=C/c1ccc2c(c1)OCCO2)c1cccc(Cl)c1` [Compound 17, (E)-1-(3-chlorophenyl)-3-(2,3-dihydrobenzo[b][1,4]dioxin-6-yl)prop-2-en-1-one], for which the melting point was in the range of 125.5 to 127 °C. For the same compound, on hMAO-B [2], the “Selectivity Index (SI)” value is greater than 702, the “fold higher inhibitory potency than 4” value is reported as 1.7–4 fold and the inhibition at 1 µM turned out to be 93.4%. The IC50 on hMAO-B [2] (setting [5]) was found to be 57 ± 4 nM. The IC50 at hMAO-A was greater than 40000 nM. Further, the “Cell viability of BV2 cells” value with BV2 microglia cells is “no considerable decrease in cellular viability”. On hMAO-B [3], the IC80 (usually the point of the concentration-response curve where the effect stands at 80%) is 280 nM, the “time after which the residual activity of hMAO-B began to increase” value turned out to be 20 min and the “reversibility of hMAO-B inhibition” value was “reversible”. The “mode of hMAO-B inhibition” value at hMAO-B [4] is on record as “competitive”.
Consider `O=C(/C=C/c1ccc2c(c1)OCCO2)c1ccc(C(F)(F)F)cc1` [Compound 21, (E)-3-(2,3-dihydrobenzo[b][1,4]dioxin-6-yl)-1-(4-(trifluoromethyl)phenyl)prop-2-en-1-one], for which the melting point fell in the range of 139 to 140.2 °C. Moreover, on hMAO-B [2], the “Selectivity Index (SI)” value was greater than 174 and at 1 µM the inhibition was 76.8%. Also, the IC50 at hMAO-B [2] (setting [5]) amounted to 230 ± 0.5 nM. Also, the IC50 on hMAO-A was greater than 40000 nM.
At hMAO-B [2], `O=C(/C=C/c1ccc2c(c1)OCCO2)c1ccc(F)c(Br)c1` [Compound 22, (E)-1-(3-bromo-4-fluorophenyl)-3-(2,3-dihydrobenzo[b][1,4]dioxin-6-yl)prop-2-en-1-one] displayed a concentration for half-maximal inhibition (IC50) of 26 ± 1 nM and an inhibition at 1 µM of 95.6%. In addition, the IC50 on hMAO-A was greater than 40000 nM. In addition, the “Cell viability of BV2 cells” value with BV2 microglia cells is on record as “no considerable decrease in cellular viability”. At hMAO-B [3], the IC80 worked out at 190 nM, the “time after which the residual activity of hMAO-B began to increase” value came out at 20 min and the “reversibility of hMAO-B inhibition” value was “reversible”. On hMAO-B [4], the “mode of hMAO-B inhibition” value is on record as “competitive”.
Turning to `O=C(/C=C/c1ccc2c(c1)OCCO2)c1ccc(Cl)c(Cl)c1` [Compound 23, (E)-1-(3,4-dichlorophenyl)-3–(2,3-dihydrobenzo[b][1,4]dioxin-6-yl)prop-2-en-1-one], the melting point was 156.6 to 157.9 °C. Besides, at hMAO-B [2], the “Selectivity Index (SI)” value was greater than 235 and 1 µM produced 88.8% inhibition. For the same compound, at hMAO-B [2] (setting [5]), the IC50 was 170 ± 20 nM. Moreover, the IC50 at hMAO-A is greater than 40000 nM.
`O=C(/C=C/c1ccc2c(c1)OCCO2)c1cc(Br)ccc1O` [Compound 24, (E)-1-(5-bromo-2-hydroxyphenyl)-3-(2,3-dihydrobenzo[b][1,4]dioxin-6-yl)prop-2-en-1-one] registered a melting point of 141.8 to 143.7 °C. Besides, on hMAO-B [2], the “Selectivity Index (SI)” value is given as greater than 160 and the inhibition at 1 µM came out at 77.1%. For the same compound, the IC50 on hMAO-B [2] (setting [5]) is 250 ± 30 nM. In addition, the IC50 on hMAO-A is greater than 40000 nM.
On to `O=C(/C=C/c1ccc2c(c1)OCCO2)c1cc(Cl)ccc1O` [Compound 25, (E)-1-(5-chloro-2-hydroxyphenyl)-3-(2,3-dihydrobenzo[b][1,4]dioxin-6-yl)prop-2-en-1-one], for which the melting point is 136.2 to 137.3 °C. Moreover, at hMAO-B [2], the “Selectivity Index (SI)” value is listed as greater than 125 and at 1 µM the inhibition was 78.4%. At hMAO-B [2] (setting [5]), the 50% inhibitory concentration (IC50) turned out to be 320 ± 50 nM. Besides, the concentration for half-maximal inhibition (IC50) on hMAO-A is greater than 40000 nM.
With `O=C(/C=C/c1ccc2c(c1)OCCO2)c1ccc(Cl)cc1O` [Compound 26, (E)-1-(4-chloro-2-hydroxyphenyl)-3-(2,3-dihydrobenzo[b][1,4]dioxin-6-yl)prop-2-en-1-one], the melting point lay in the range of 155.7 to 156.1 °C. At 1 µM the inhibition on hMAO-B [2] was 62.3%. Moreover, the IC50 on hMAO-A was greater than 40000 nM.
As for `O=C(/C=C/c1ccc2c(c1)OCO2)c1cccc(Br)c1` [Compound 27, (E)-3-(benzo[d][1,3]dioxol-5-yl)-1–(3-bromophenyl)prop-2-en-1-one], the melting point lay in the range of 111.8 to 112.6 °C. Besides, at hMAO-B [2], the “Selectivity Index (SI)” value is on record as greater than 143 and the inhibition at 1 µM turned out to be 80.4%. Further, on hMAO-B [2] (setting [5]), the IC50 was determined as 280 ± 2 nM. For the same compound, the IC50 at hMAO-A is greater than 40000 nM.
Take `C#CCN[C@@H]1CCc2ccccc21` [rasagiline, reference compound]: at hMAO-B [3], the IC80 is 200 nM.
With `C[C@H](NCc1ccc(OCc2cccc(F)c2)cc1)C(N)=O` [safinamide, reference compound], at hMAO-B [3], the concentration for an effect of 80% (IC80) is 60 nM, the “time after which the residual activity of hMAO-B began to increase” value was 15 min and the “reversibility of hMAO-B inhibition” value was “reversible”.
